# Test results taken from paper PMC11889964, “Surveying helix 12 dynamics within constitutively active estrogen receptors using bipartite tetracysteine display” (The Journal of Biological Chemistry, 2025).
# Changes are numbered by the printed parent chain.
# Columns and labels:
# Type in all cases: binding
# ERα-LBD-ΔC4 [1] = target: T1, ERα-LBD-ΔC4 (Homo sapiens, UniProt P03372, A546C/C417S/C530A/E380C/H547C); assay: Endpoint fluorescence FlAsH-ER assay; conditions: unliganded ERα-LBD-ΔC4; 1 μM FlAsH-EDT2, 6 h
# T1 construct: pMCSG7 leader with TEV site (ENLYFQ/SNA); made in house; host or cells: E. coli BL21(DE3)
# T1 sequence (P03372 with tags, fused parts or gaps E380C/C417S/C530A/A546C/H547C): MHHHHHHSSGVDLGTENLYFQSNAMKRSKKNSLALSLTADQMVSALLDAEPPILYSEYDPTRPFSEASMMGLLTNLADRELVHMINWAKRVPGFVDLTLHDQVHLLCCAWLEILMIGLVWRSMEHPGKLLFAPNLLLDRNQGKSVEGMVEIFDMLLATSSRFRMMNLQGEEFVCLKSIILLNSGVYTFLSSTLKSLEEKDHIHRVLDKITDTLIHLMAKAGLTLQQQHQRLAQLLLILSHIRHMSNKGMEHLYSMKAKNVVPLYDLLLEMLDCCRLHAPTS
# Experimental: Endpoint fluorescence experiments were performed in triplicate on 384-well black, flat-bottom plates (catalog no.: 3575; Corning) with wells containing 25 μl total reaction volume. The protein (10 μM) was incubated in FlAsH binding buffer (50 mM Tris base, 500 mM KCl, 2 mM DTT, 1 mM EDTA, 1 mM Na3VO4, 10% glycerol, pH 8.0) supplemented with 1 mM TCEP overnight at room temperature. […] Following incubation, 1 μl aliquots of EDT and FlAsH-EDT2 in binding buffer were added at final concentrations of 10 μM and 1 μM, respectively. The reaction mixtures were then allowed to incubate in the dark for 6 h at room temperature. Following incubation, the fluorescence of each sample was measured using a SpectraMax M5e multimode plate reader (Molecular Devices), with an excitation wavelength of 508 nm and an emission wavelength of 530 nm. Data were collected using SoftMax Pro software, version 6.4 (Molecular Devices) and processed using Kaleidagraph, version 4.5 (Synergy).
# ERα-LBD-ΔC4 [2] = target: T1, ERα-LBD-ΔC4; assay: Kinetic FlAsH-ER assay, FlAsH apparent rate constants (kon); conditions: 1 μM FlAsH-EDT2, 10 μM protein
# Experimental: (§1) Kinetic experiments were performed on 384-well black, flat-bottom plates (catalog no.: 3575; Corning) with wells containing 25 μl total reaction volume. ERα-LBDs (10 μM) were incubated in 25 μl of binding buffer supplemented with 1 mM TCEP overnight at room temperature. […] Aliquots of EDT and FlAsH-EDT2 (1 μl) at respective final concentrations of 10 μM and 1 μM in binding buffer were then added to the samples. The change in fluorescence of each sample was then collected over 6 h with measurements taken at 1 min intervals. Data were collected using a SpectraMax M5e multimode plate reader, with an excitation wavelength of 508 nm and an emission wavelength of 530 nm. The data were processed using Kaleidagraph, version 4.5, and apparent rate constants (kon) were determined through curve fitting using the equation below: Fobs=Fmin+(Fmax−Fmin)(1−e^(−kT)) where Fobs is the observed fluorescence; Fmin is the minimum fluorescence value; Fmax represents the maximum fluorescence value; T is time in minutes; and k is the apparent rate constant.
# ERα-LBD-ΔC4(Y537S) [3] = target: T2, ERα-LBD-ΔC4(Y537S) (Homo sapiens, UniProt P03372, A546C/C417S/C530A/E380C/H547C/Y537S); assay: as above; conditions: 1 μM FlAsH-EDT2, 10 μM protein
# T2 construct: pMCSG7 leader with TEV site (ENLYFQ/SNA); made in house; host or cells: E. coli BL21(DE3)
# T2 sequence (P03372 with tags, fused parts or gaps E380C/C417S/C530A/Y537S/A546C/H547C): T1 sequence (P03372 with tags, fused parts or gaps E380C/C417S/C530A/A546C/H547C) with Y264S
# Experimental: as §1
# ERα-LBD-ΔC4(D538G) [4] = target: T3, ERα-LBD-ΔC4(D538G) (Homo sapiens, UniProt P03372, A546C/C417S/C530A/D538G/E380C/H547C); assay: as above; conditions: 1 μM FlAsH-EDT2, 10 μM protein
# T3 construct: pMCSG7 leader with TEV site (ENLYFQ/SNA); made in house; host or cells: E. coli BL21(DE3)
# T3 sequence (P03372 with tags, fused parts or gaps E380C/C417S/C530A/D538G/A546C/H547C): T1 sequence (P03372 with tags, fused parts or gaps E380C/C417S/C530A/A546C/H547C) with D265G
# Experimental: as §1
# ERα-LBD-ΔC4 [5] = target: T1, ERα-LBD-ΔC4; assay: Titration FlAsH-ER assay, FlAsH apparent equilibrium dissociation constants (Kapp)
# Experimental: (§2) Titration experiments were performed on 384-well black, flat-bottom plates (catalog no.: 3575; Corning) with wells containing 25 μl total reaction volume^. ERα-LBDs (10 μM) were incubated in 25 μl of binding buffer supplemented with 1 mM TCEP overnight at room temperature. […] The solutions were then transferred to a fresh 384-well black, flat-bottom plate (catalog no.: 3575; Corning) and serially diluted with binding buffer. EDT and FlAsH-EDT2 (1 μl) in binding buffer were then immediately added at final concentrations of 10 μM and 1 μM, respectively. The reactions were then allowed to incubate in the dark for 6 h at room temperature. Fluorescence counts for each sample were then measured using a SpectraMax M5e multimode plate reader, with an excitation wavelength of 508 nm and an emission wavelength of 530 nm. Data were processed using SoftMax Pro software, version 6.4 and Kaleidagraph, version 4.5. The Kapp for each complex was defined by curve fitting using the equation below. Fobs=Fmin+(Fmax−Fmin/2L)(L+P+Kapp−((L+P+Kapp)^2−(4LP))^0.5) where Fobs is the observed fluorescence; P represents the total protein concentration; L is the total concentration of FlAsH-EDT2; Fmin is the minimum fluorescence value; Fmax represents the maximum fluorescence value; and Kapp is the apparent equilibrium dissociation constant.
# ERα-LBD-ΔC4(Y537S) [6] = target: T2, ERα-LBD-ΔC4(Y537S); assay: as above
# Experimental: as §2
# ERα-LBD-ΔC4(D538G) [7] = target: T3, ERα-LBD-ΔC4(D538G); assay: as above
# Experimental: as §2
compound,measurement,setting,value
O=C(O)c1ccccc1-c1c2ccc(=O)c([As]3SCCS3)c-2oc2c([As]3SCCS3)c(O)ccc12 [FlAsH],increase in endpoint fluorescence compared with ERα-LBD-ΔC0,ERα-LBD-ΔC4 [1],10 fold
same,kon,ERα-LBD-ΔC4 [2]; liganded receptor (+10 μM E2),310 M⁻¹ s⁻¹
same,kon,ERα-LBD-ΔC4 [2]; unliganded receptor (−E2),447 M⁻¹ s⁻¹
same,kon,ERα-LBD-ΔC4(Y537S) [3]; liganded receptor (+10 μM E2),900 M⁻¹ s⁻¹
same,kon,ERα-LBD-ΔC4(Y537S) [3]; unliganded receptor (−E2),491 M⁻¹ s⁻¹
same,kon,ERα-LBD-ΔC4(D538G) [4]; liganded receptor (+10 μM E2),1170 M⁻¹ s⁻¹
same,kon,ERα-LBD-ΔC4(D538G) [4]; unliganded receptor (−E2),838 M⁻¹ s⁻¹
same,Kd,ERα-LBD-ΔC4 [5]; liganded receptor (+E2),1220 ± 700 nM
same,Kd,ERα-LBD-ΔC4 [5]; unliganded receptor (−E2),940 ± 560 nM
same,Kd,ERα-LBD-ΔC4(Y537S) [6]; liganded receptor (+E2),540 ± 330 nM
same,Kd,ERα-LBD-ΔC4(Y537S) [6]; unliganded receptor (−E2),900 ± 650 nM
same,Kd,ERα-LBD-ΔC4(D538G) [7]; liganded receptor (+E2),160 ± 60 nM
same,Kd,ERα-LBD-ΔC4(D538G) [7]; unliganded receptor (−E2),570 ± 370 nM
